Values belong to the molecule of their own block, whether it stands above or below them.
Columns and labels:
Assay type in all cases: functional
[1] = test system: MDA-MB-231; experiment: Growth inhibition of MDA-MB-231 cells after 48 hrs by SRB protein assay; settings: Homo sapiens, MDA-MB-231, 48 h; for TGI: read-out: Log TGI (converted)
[2] = test system: SW-620; experiment: Growth inhibition of human SW620 cells after 48 hrs by SRB protein assay; settings: SW-620, 48 h; for TGI: read-out: Log TGI (converted)
[3] = test system: HCT-15; experiment: Growth inhibition of human HCT15 cells after 48 hrs by SRB protein assay; settings: HCT-15, 48 h; for TGI: read-out: Log TGI (converted)
[4] = test system: NCI-H322M; experiment: Growth inhibition of human NCI-H322M cells after 48 hrs by SRB protein assay; settings: for TGI: read-out: Log TGI (converted)
[5] = test system: KM12; experiment: Growth inhibition of human KM12 cells after 48 hrs by SRB protein assay; settings: KM12, 48 h; for TGI: read-out: Log TGI (converted)
[6] = test system: NCI-H23; experiment: Growth inhibition of human NCI-H23 cells after 48 hrs by SRB protein assay; settings: NCI-H23, 48 h; for TGI: read-out: Log TGI (converted)
[7] = test system: HT-29; experiment: Growth inhibition of human HT29 cells after 48 hrs by SRB protein assay; settings: HT-29, 48 h; for TGI: read-out: Log TGI (converted)
[8] = test system: SK-OV-3; experiment: Growth inhibition of human SK-OV-3 cells after 48 hrs by SRB protein assay; settings: SK-OV-3, 48 h; for TGI: read-out: Log TGI (converted)
[9] = test system: UACC-62; experiment: Growth inhibition of human UACC62 cells after 48 hrs by SRB protein assay; settings: UACC-62, 48 h; for TGI: read-out: Log TGI (converted)
[10] = test system: SK-MEL-2; experiment: Growth inhibition of human SK-MEL-2 cells after 48 hrs by SRB protein assay; settings: SK-MEL-2, 48 h; for TGI: read-out: Log TGI (converted)
[11] = test system: MCF7; experiment: Growth inhibition of human MCF7 cells after 48 hrs by SRB protein assay; settings: MCF7, 48 h; for TGI: read-out: Log TGI (converted)
[12] = test system: RPMI-8226; experiment: Growth inhibition of human RPMI8226 cells after 48 hrs by SRB protein assay; settings: RPMI-8226, 48 h; for TGI: read-out: Log TGI (converted)
[13] = test system: A549; experiment: Growth inhibition of human A549 cells after 48 hrs by SRB protein assay; settings: A549, 48 h; for TGI: read-out: Log TGI (converted)
[14] = test system: T47D; experiment: Growth inhibition of human T47D cells after 48 hrs by SRB protein assay; settings: for TGI: read-out: Log TGI (converted)
[15] = test system: HOP-92; experiment: Growth inhibition of human HOP92 cells after 48 hrs by SRB protein assay; settings: HOP-92, 48 h; for TGI: read-out: Log TGI (converted)
[16] = test system: CCRF-CEM; experiment: Growth inhibition of human CCRF-CEM cells after 48 hrs by SRB protein assay; settings: for TGI: read-out: Log TGI (converted)
[17] = test system: ACHN; experiment: Growth inhibition of human ACHN cells after 48 hrs by SRB protein assay; settings: for TGI: read-out: Log TGI (converted)
[18] = test system: HOP-62; experiment: Growth inhibition of human HOP62 cells after 48 hrs by SRB protein assay; settings: HOP-62, 48 h; for TGI: read-out: Log TGI (converted)
[19] = test system: NCI-H522; experiment: Growth inhibition of human NCI-H522 cells after 48 hrs by SRB protein assay; settings: NCI-H522, 48 h; for TGI: read-out: Log TGI (converted)
[20] = test system: DU-145; experiment: Growth inhibition of human DU145 cells after 48 hrs by SRB protein assay; settings: DU-145, 48 h; for TGI: read-out: Log TGI (converted)
[21] = test system: RXF 393; experiment: Growth inhibition of human RXF393 cells after 48 hrs by SRB protein assay; settings: RXF 393, 48 h; for TGI: read-out: Log TGI (converted)
[22] = test system: SF-539; experiment: Growth inhibition of human SF539 cells after 48 hrs by SRB protein assay; settings: SF-539, 48 h; for TGI: read-out: Log TGI (converted)
[23] = test system: NCI-H460; experiment: Growth inhibition of human NCI-H460 cells after 48 hrs by SRB protein assay; settings: NCI-H460, 48 h; for TGI: read-out: Log TGI (converted)
[24] = test system: COLO 205; experiment: Growth inhibition of human COLO205 cells after 48 hrs by SRB protein assay; settings: COLO 205, 48 h; for TGI: read-out: Log TGI (converted)
[25] = test system: SF-295; experiment: Growth inhibition of human SF295 cells after 48 hrs by SRB protein assay; settings: SF-295, 48 h; for TGI: read-out: Log TGI (converted)
[26] = test system: EKVX; experiment: Growth inhibition of human EKVX cells after 48 hrs by SRB protein assay; settings: for TGI: read-out: Log TGI (converted)
[27] = test system: MOLT-4; experiment: Growth inhibition of human MOLT4 cells after 48 hrs by SRB protein assay; settings: MOLT-4, 48 h; for TGI: read-out: Log TGI (converted)
[28] = test system: BT-549; experiment: Growth inhibition of human BT549 cells after 48 hrs by SRB protein assay; settings: BT-549, 48 h; for TGI: read-out: Log TGI (converted)
[29] = test system: HCT-116; experiment: Growth inhibition of human HCT116 cells after 48 hrs by SRB protein assay; settings: HCT-116, 48 h; for TGI: read-out: Log TGI (converted)
[30] = test system: PC-3; experiment: Growth inhibition of human PC3 cells after 48 hrs by SRB protein assay; settings: PC-3, 48 h; for TGI: read-out: Log TGI (converted)
[31] = test system: UO-31; experiment: Growth inhibition of human UO31 cells after 48 hrs by SRB protein assay; settings: UO-31, 48 h; for TGI: read-out: Log TGI (converted)
[32] = test system: OVCAR-5; experiment: Growth inhibition of human OVCAR5 cells after 48 hrs by SRB protein assay; settings: OVCAR-5, 48 h; for TGI: read-out: Log TGI (converted)
[33] = test system: OVCAR-8; experiment: Growth inhibition of human OVCAR8 cells after 48 hrs by SRB protein assay; settings: OVCAR-8, 48 h; for TGI: read-out: Log TGI (converted)
[34] = test system: SK-MEL-5; experiment: Growth inhibition of human SK-MEL-5 cells after 48 hrs by SRB protein assay; settings: SK-MEL-5, 48 h; for TGI: read-out: Log TGI (converted)
[35] = test system: M14; experiment: Growth inhibition of human M14 cells after 48 hrs by SRB protein assay; settings: M14, 48 h; for TGI: read-out: Log TGI (converted)
[36] = test system: Hs-578T; experiment: Growth inhibition of human HS578T cells after 48 hrs by SRB protein assay; settings: for TGI: read-out: Log TGI (converted)
[37] = test system: SF-268; experiment: Growth inhibition of human SF268 cells after 48 hrs by SRB protein assay; settings: SF-268, 48 h; for TGI: read-out: Log TGI (converted)
[38] = test system: U-251; experiment: Growth inhibition human U251 of cells after 48 hrs by SRB protein assay; settings: U-251, 48 h; for TGI: read-out: Log TGI (converted)
[39] = test system: CAKI-1; experiment: Growth inhibition of human CAKI1 cells after 48 hrs by SRB protein assay; settings: CAKI-1, 48 h; for TGI: read-out: Log TGI (converted)

- GI50 [1]: 3.24 µM
- GI50 [2]: 3.98 µM
- GI50 [3]: 0.955 µM
- GI50 [4]: 2.14 µM
- GI50 [6]: 3.39 µM
- GI50 [7]: 6.03 µM
- GI50 [8]: 12.9 µM
- GI50 [10]: 20.9 µM
- GI50 [11]: 13.2 µM
- GI50 [12]: 2.82 µM
- GI50 [13]: 6.17 µM
- GI50 [14]: 5.25 µM
- GI50 [16]: 1.82 µM
- GI50 [17]: 1.58 µM
- GI50 [19]: 5.25 µM
- GI50 [20]: 2.88 µM
- GI50 [23]: 15.8 µM
- GI50 [24]: 5.13 µM
- GI50 [27]: 2.34 µM
- GI50 [28]: 10 µM
- GI50 [29]: 3.24 µM
- GI50 [30]: 4.27 µM
- GI50 [32]: 5.5 µM
- GI50 [33]: 2.29 µM
- GI50 [34]: 2.95 µM
- GI50 [38]: 3.63 µM
Structure (SMILES): O=C(Cc1csc2nc(-c3ccc(Br)cc3)cn12)N/N=C/c1ccccc1O
- TGI [1]: 17 µM
- TGI [2]: 17.4 µM
- TGI [3]: 17.4 µM
- TGI [4]: 10.7 µM
- GI50 [5]: 3.63 µM
- TGI [5]: 17 µM
- TGI [6]: 14.1 µM
- TGI [7]: 19.1 µM
- TGI [8]: 30.2 µM
- GI50 [9]: 2.09 µM
- TGI [9]: 7.24 µM
- TGI [10]: 53.7 µM
- TGI [11]: > 100 µM
- TGI [12]: 20.9 µM
- TGI [13]: 24 µM
- TGI [14]: 23.4 µM
- GI50 [15]: 2.09 µM
- TGI [15]: 14.5 µM
- TGI [16]: 8.32 µM
- TGI [17]: 6.31 µM
- GI50 [18]: 3.89 µM
- TGI [18]: 14.8 µM
- TGI [19]: 26.9 µM
- TGI [20]: 13.8 µM
- GI50 [21]: 38 µM
- TGI [21]: 63.1 µM
- GI50 [22]: 3.55 µM
- TGI [22]: 11.7 µM
- TGI [23]: > 100 µM
- TGI [24]: 22.9 µM
- GI50 [25]: 2.75 µM
- TGI [25]: 9.33 µM
- GI50 [26]: 3.89 µM
- TGI [26]: 19.1 µM
- TGI [27]: 10.7 µM
- TGI [28]: 22.4 µM
- TGI [29]: 12.3 µM
- TGI [30]: 16.6 µM
- GI50 [31]: 7.08 µM
- TGI [31]: > 100 µM
- TGI [32]: 31.6 µM
- TGI [33]: 12.3 µM
- TGI [34]: 10.7 µM
- GI50 [35]: 2.57 µM
- TGI [35]: 7.76 µM
- GI50 [36]: 13.5 µM
- TGI [36]: 42.7 µM
- GI50 [37]: > 100 µM
- TGI [37]: > 100 µM
- TGI [38]: 15.1 µM
- GI50 [39]: 0.398 µM
- TGI [39]: 2.4 µM

- GI50 [1]: 16.2 µM
- GI50 [2]: 6.46 µM
- GI50 [3]: 7.41 µM
- GI50 [4]: 14.8 µM
- GI50 [6]: 19.5 µM
- GI50 [7]: 16.2 µM
- GI50 [8]: 57.5 µM
- GI50 [10]: 89.1 µM
- GI50 [11]: 29.5 µM
- GI50 [12]: 10.2 µM
- GI50 [13]: 11.5 µM
- GI50 [14]: 40.7 µM
- GI50 [16]: 9.55 µM
- GI50 [17]: 17 µM
- GI50 [19]: 22.9 µM
- GI50 [20]: 17.8 µM
- GI50 [23]: > 100 µM
- GI50 [24]: 35.5 µM
- GI50 [27]: 3.47 µM
- GI50 [28]: 12.9 µM
- GI50 [29]: 4.57 µM
- GI50 [30]: 13.5 µM
- GI50 [32]: 50.1 µM
- GI50 [33]: 11.5 µM
- GI50 [34]: 8.91 µM
- GI50 [38]: 13.8 µM
Structure (SMILES): COc1cccc(OC)c1/C=N/NC(=O)Cc1csc2nc(-c3ccc(Br)cc3)cn12
- TGI [1]: 40.7 µM
- TGI [2]: 49 µM
- TGI [3]: 64.6 µM
- TGI [4]: 61.7 µM
- GI50 [5]: 8.91 µM
- TGI [5]: > 100 µM
- TGI [6]: 52.5 µM
- TGI [7]: > 100 µM
- TGI [8]: > 100 µM
- GI50 [9]: 12 µM
- TGI [9]: 27.5 µM
- TGI [10]: > 100 µM
- TGI [11]: > 100 µM
- TGI [12]: > 100 µM
- TGI [13]: 38.9 µM
- TGI [14]: > 100 µM
- GI50 [15]: 13.8 µM
- TGI [15]: 35.5 µM
- TGI [16]: > 100 µM
- TGI [17]: 34.7 µM
- GI50 [18]: 13.2 µM
- TGI [18]: 30.2 µM
- TGI [19]: > 100 µM
- TGI [20]: 47.9 µM
- GI50 [21]: 19.1 µM
- TGI [21]: 67.6 µM
- GI50 [22]: 11.2 µM
- TGI [22]: 24.5 µM
- TGI [23]: > 100 µM
- TGI [24]: > 100 µM
- GI50 [25]: 12.3 µM
- TGI [25]: 34.7 µM
- GI50 [26]: 17 µM
- TGI [26]: 57.5 µM
- TGI [27]: 8.13 µM
- TGI [28]: 33.9 µM
- TGI [29]: 15.8 µM
- TGI [30]: 93.3 µM
- GI50 [31]: 60.3 µM
- TGI [31]: > 100 µM
- TGI [32]: > 100 µM
- TGI [33]: 38 µM
- TGI [34]: 42.7 µM
- GI50 [35]: 15.1 µM
- TGI [35]: 72.4 µM
- GI50 [36]: 11.5 µM
- TGI [36]: 45.7 µM
- GI50 [37]: > 100 µM
- TGI [37]: > 100 µM
- TGI [38]: 31.6 µM
- GI50 [39]: 12.6 µM
- TGI [39]: 33.9 µM
